{"source": "patent US20190374509A1", "about": "“Methods of Using Metamizole for Treatment of Pyrexia in Equines” (Kindred Biosciences, Inc., priority 2018, published 2019)", "system": "horses", "assay": "Coagulation effects study, IV BID or TID for 9 days: clinical signs", "format": "in vivo", "procedure": "The purpose of this study was to evaluate the effects of metamizole on coagulation parameters and pharmacokinetic parameters when administered intravenously to horses for 9 days at doses of 0 mg/kg (0×), 30 mg/kg (1×), 60 mg/kg (2×), and 90 mg/kg (3×) of body weight. Doses of 0×, 1×, 2×, and 3× were administered twice daily (BID), every 12 hours±120 min. Doses of 1× and 2× were administered three times daily (TID), every 8 hours±120 min. Metamizole plasma concentrations were assessed in the 1×BID, 3×BID, 1×TID, and 2×TID treatments groups to evaluate for evidence of accumulation.\nThe investigational drug was a sterile injectable formulation of dipyrone (Zimeta®, Corden Pharma, Caponago, Italy) (500 mg/mL) in 100 mL glass bottles. The placebo was sterile injectable saline (0.9% Saline, Nova-Tech Inc, Grand Island, NE) (0.9% sodium chloride) in 500 mL plastic bottles labeled for veterinary use. Dipyrone treatment groups were 30 mg/kg/dose (1×) administered twice daily (BID), 1× administered three times daily (TID), 60 mg/kg/dose (2×) BID, 2×TID, and 90 mg/kg/dose (3×) BID. Placebo treatment group, (0×) BID, were saline administered at a volume to match the 1× dipyrone group. The dose was calculated based on body weight and administered for nine consecutive days (Days 1-9). Due to the large volume of the injection at the higher test intervals, treatment was administered via indwelling intravenous catheters. Intravenous catheters were placed using standard techniques. Horses were sedated with xylazine (XylaMed™, VetOne, MWI, Boise, Id.) (0.6 mg/kg, IV) and the skin was desensitized with subcutaneous injection of lidocaine (Lidocaine 2%, VetOne, MWI, Boise, Id.). Intravenous catheters were replaced at the discretion of the study director and were maintained with heparinized saline flush prior to, and following, dose administration.\nHorses were acclimated to the facility for 14 days prior to start of the treatment phase. […] On Day −1, thirty-two horses were randomized by the study statistician and moved to their assigned pens. On Day −1 (baseline), Day 4, and Day 10 horses had blood collected for a coagulation panel. A physical exam was performed prior to study start and on Day 10.", "key": {"[1]": {"details": "1X BID, 30 mg/kg IV twice daily, n = 6"}, "[2]": {"details": "1X TID, 30 mg/kg IV three times daily, n = 4"}, "[3]": {"details": "2X BID, 60 mg/kg IV twice daily, n = 6"}, "[4]": {"details": "2X TID, 60 mg/kg IV three times daily, n = 6"}, "[5]": {"details": "3X BID, 90 mg/kg IV twice daily, n = 6"}}, "data": [{"smiles": "Cc1c(N(C)CS(=O)(=O)O)c(=O)n(-c2ccccc2)n1C", "note": "[dipyrone, [(2,3-dihydro-1,5-dimethyl-3-oxo-2-phenyl-1H-pyrazol-4-yl)methylamino] methanesulfonic acid]", "values": [{"measurement": "Depression, number of horses", "setting": "[1]", "value": 0}, {"measurement": "Dermatitis, number of horses", "setting": "[1]", "value": 0}, {"measurement": "Minor gastrointestinal signs or inappetence, number of horses", "setting": "[1]", "value": 2}, {"measurement": "Minor respiratory signs (nasal discharge and or cough), number of horses", "setting": "[1]", "value": 1}, {"measurement": "Ocular discharge, number of horses", "setting": "[1]", "value": 0}, {"measurement": "Phlebitis and other catheter-related changes to jugular vein, number of horses", "setting": "[1]", "value": 2}, {"measurement": "Suture site abscesses, number of horses", "setting": "[1]", "value": 1}, {"measurement": "Depression, number of horses", "setting": "[2]", "value": 0}, {"measurement": "Dermatitis, number of horses", "setting": "[2]", "value": 0}, {"measurement": "Minor gastrointestinal signs or inappetence, number of horses", "setting": "[2]", "value": 1}, {"measurement": "Minor respiratory signs (nasal discharge and or cough), number of horses", "setting": "[2]", "value": 0}, {"measurement": "Ocular discharge, number of horses", "setting": "[2]", "value": 0}, {"measurement": "Phlebitis and other catheter-related changes to jugular vein, number of horses", "setting": "[2]", "value": 1}, {"measurement": "Suture site abscesses, number of horses", "setting": "[2]", "value": 0}, {"measurement": "Depression, number of horses", "setting": "[3]", "value": 0}, {"measurement": "Dermatitis, number of horses", "setting": "[3]", "value": 0}, {"measurement": "Minor gastrointestinal signs or inappetence, number of horses", "setting": "[3]", "value": 2}, {"measurement": "Minor respiratory signs (nasal discharge and or cough), number of horses", "setting": "[3]", "value": 0}, {"measurement": "Ocular discharge, number of horses", "setting": "[3]", "value": 1}, {"measurement": "Phlebitis and other catheter-related changes to jugular vein, number of horses", "setting": "[3]", "value": 3}, {"measurement": "Suture site abscesses, number of horses", "setting": "[3]", "value": 0}, {"measurement": "Depression, number of horses", "setting": "[4]", "value": 1}, {"measurement": "Dermatitis, number of horses", "setting": "[4]", "value": 0}, {"measurement": "Minor gastrointestinal signs or inappetence, number of horses", "setting": "[4]", "value": 2}, {"measurement": "Minor respiratory signs (nasal discharge and or cough), number of horses", "setting": "[4]", "value": 0}, {"measurement": "Ocular discharge, number of horses", "setting": "[4]", "value": 0}, {"measurement": "Phlebitis and other catheter-related changes to jugular vein, number of horses", "setting": "[4]", "value": 2}, {"measurement": "Suture site abscesses, number of horses", "setting": "[4]", "value": 1}, {"measurement": "Depression, number of horses", "setting": "[5]", "value": 0}, {"measurement": "Dermatitis, number of horses", "setting": "[5]", "value": 1}, {"measurement": "Minor gastrointestinal signs or inappetence, number of horses", "setting": "[5]", "value": 1}, {"measurement": "Minor respiratory signs (nasal discharge and or cough), number of horses", "setting": "[5]", "value": 1}, {"measurement": "Ocular discharge, number of horses", "setting": "[5]", "value": 0}, {"measurement": "Phlebitis and other catheter-related changes to jugular vein, number of horses", "setting": "[5]", "value": 3}, {"measurement": "Suture site abscesses, number of horses", "setting": "[5]", "value": 0}, {"measurement": "Abnormal clinical signs in the treatment period", "setting": "all treatment groups (30-90 mg/kg IV BID or TID, 9 days)", "value": "none were considered treatment related"}]}]}
